# Laboratory results as given in patent publication US20090170845A1, “USE OF IMIDAZO[2,1-b]-1,3,4-THIADIAZOLE-2-SULFONAMIDE COMPOUNDS TO TREAT NEUROPATHIC PAIN” (AEGERA THERAPEUTICS INC., priority 2006, published 2009).
# What was measured:
# Format in all cases: in vivo, rat
# diabetic rats = experiment: Tactile allodynia (von Frey) in diabetic rats (DN); conditions: for established neuropathic pain state in diabetic rats: Study 2, 10 mg/kg sc for 14 consecutive days; for neuropathic pain in diabetic rats: subcutaneous and/or oral delivery routes
# Experimental: The effects of compounds 150, 155, 157 and 158 on neuropathic pain responses characterized by tactile allodynia in diabetic rats were examined. A blinded reversal interventional paradigm was applied to evaluate the compounds, with therapy initiated when an aberrant pain state was clearly established. The effects of single or repeat (5 or two days per week) dosing regimen were assessed as described.
# Rats (female Sprague Dawley; 250-270 g) were rendered diabetic with the commercially available agent streptozotocin and, were compared to vehicle-treated age matched controls, maintained for up to 6 weeks or more. Standard physiologic parameters (body weight and blood glucose) were recorded before, during and after the study to assess the metabolic status of animals.
# Study 1: Both normal and diabetic groups were divided into two groups of 12 and received either vehicle or Compound 150 in 20% HPCD (10 mg/kg, sc) 5 days per week, for two weeks. Standard indices of sensory nerve function (tactile response threshold) were measured at baseline, prior to drug treatments, 48 hours after the 5th dose, and again prior to sacrifice (after the 10th dose) along with the standard physiologic parameters of body weight and plasma glucose.
# Study 2: As per Study 1, except animals were treated with either compound 157 or 158 in 20% HPCD (10 mg/kg, sc) for 14 consecutive days.
# Study 3: After 1 month of diabetes rats were treated subcutaneously with a single administration of 150, 155, 157, 154, 158 or 160 in 20% HPCD, as indicated; orally by gavage with a single administration of 157, or for 5 consecutive days by oral gavage with 157 and 158 to assess cumulative effects. The effect of the compounds was assessed 6 hours after the single or final administration.
# Detailed methods for performing the behavioral tasks can be found in Journal of Neuroscience Methods (1994), 53: 55-63 and Methods in Molecular Medicine, Volume 99: Pain Research: methods and protocols, edited by Z. D. Luo, Humana Press Inc., Totowa, N.J.
# [1] = tested on: Complete Freund's Adjuvant (CFA) model of hyperalgesia in rats; experiment: CFA-induced tactile hyperalgesia in rats; conditions: for activity in CFA model of hyperalgesia: subcutaneous and/or oral delivery
# Text: Complete Freund's Adjuvant (CFA) was used to induce an inflammatory response, resulting in hyperalgesia. This model was chosen as a second experimental paradigm to obtain direct evidence for activity of the compounds against pain states because of its link with the induction of aberrant JNK phosphorylation, and evidence that this signaling cascade appears to, at least in part, mediate the pain response in this model (Doya et al., 2005).
# Female Sprague Dawley rats were given either vehicle or Compound 150 (10 mg/kg, sc), 155 (1-10 mg/kg, sc), 157 (1-10 mg/kg, sc; 10-40 mg/kg, po) or 158 (10 mg/kg, sc) 6 hours prior to pain testing (compounds 150, 155, 157, and 158 were dissolved in 20% HPCD at 1-10 mg/mL). Compound 157 was also tested under conditions of repeat dosing where it was given at 5-20 mg/kg, po for five consecutive days. Under all treatment conditions, a single injection of CFA (50 uL) was given into the plantar surface of the right hind paw 1 hour prior to pain testing (i.e., 5 hours after the final administration of compound). Immediately after the CFA injection, animals were placed in testing chambers with a wire mesh bottom to habituate. Standard von Frey filaments were used to assess tactile response thresholds. The left, un-injected paw served as a control. Fibers were applied in the manner described by Dixon (1980) using the up-down method. The 50% withdrawal threshold (in grams) was determined for each paw.
# [2] = tested on: STZ treated diabetic rats; experiment: Sensory nerve conduction velocity (SNCV) in STZ diabetic rats, reversal paradigm, 2 months treatment
# Text: (§1) The effects of Compound 150 on nerve conduction (both motor and sensory) and axonal atrophy were examined in diabetic rats. A blinded reversal interventional paradigm was applied to evaluate two related small molecules on established experimental rat diabetic peripheral neuropathy of 2 months duration given over a subsequent 2 months, specifically evaluating motor and sensory conduction and sural axon caliber.
# (§2) Male Sprague-Dawley rats (200-300 g) raised on sawdust covered plastic cages in a room with normal light dark timing and fed with standard rat chow were used for this experiment. The protocol was reviewed and approved by the University of Calgary Animal Care Committee adhering to the guidelines of the Canadian Council on Animal Care (CCAC). Diabetes was induced by a single intraperitoneal injection of streptozotocin (STZ) in citrate buffer (65 mg/kg) with age-matched controls given the buffer without STZ. Animals were used for the study if fasting glucose levels 5-7 days later were ≧16.0 mmol/L (One Touch FasTake strips, Johnson and Johnson).
# (§3) Treatments were applied after 2 months of hyperglycemia for a duration of 2 months. Motor conduction recordings (1-3) were made prior to intervention then after […]. Sensory conduction utilized the approach of Parry and Kozu involving stimulation of the digital branches of the sciatic nerve and recording from the sciatic nerve at the level of the popliteal fossa with near nerve temperature maintained at 37° C. (4).
# (§4) For statistical analysis, we studied mean values with standard errors of the means and compared values in the interventional groups with one way ANOVA or repeated measures ANOVA and post hoc Student's t-tests.
# [3] = tested on: STZ treated diabetic rats; experiment: Motor nerve conduction velocity (MNCV) in STZ diabetic rats, reversal paradigm, 2 months treatment
# Text: as §1, §2, §3, §4
# [4] = tested on: STZ treated diabetic rats; experiment: Sural nerve myelinated axon morphometry in STZ diabetic rats; conditions: 5 of 7 days, 2 months of treatment
# Experimental: as §2
# At endpoint (4 months of diabetes, 2 months of treatment) the rats were euthanized and sural nerves harvested for morphometric studies. Sural nerves were fixed in cacodylate buffered glutaraldehyde, dehydrated with alcohols, fixed in osmium tetroxide then embedded in epon to generate one micron sections, as in previous work (5,6). Sections were photographed under oil immersion (1000×) to sample the entire sural nerve. Images were analyzed using Scion image offline to measure axon area for 100 myelinated axons for each sural nerve fascicle. […] For sural nerves with more than one fascicle, each fascicle underwent separate analysis and a mean axon area was calculated for the rat from the fascicles. […]
# [5] = po, 5 d loading (5 consecutive days)
# [6] = po, 5 d loading (repeated dosing)
# [7] = sc, acute single, 6 hours after administration
Structure (SMILES),established neuropathic pain state in diabetic rats (diabetic rats),DN (effect on tactile allodynia in diabetic rats) (diabetic rats; [5]),"DN, effective dose (diabetic rats; [6])","DN, effective dose (diabetic rats; sc, acute single)",DN (effect on tactile allodynia in diabetic rats) (diabetic rats; [7]),neuropathic pain in diabetic rats (diabetic rats),"CFA (effect on tactile hyperalgesia) ([1]; sc, acute single)",activity in CFA model of hyperalgesia [1],other results
COCCOCCOc1ccc(-c2cn3nc(S(=O)(=O)[N-][Na+])sc3n2)cc1 [Compound 157],reversed an established neuropathic pain state,equivalent efficacy was observed and +ve,5 to 10 mg/kg,<10 mg/kg,Effects of single administrations were observed,can reverse neuropathic pain,attenuated CFA-induced tactile hyperalgesia and +ve,active,"duration of effect on pain after a single administration (diabetic rats; diabetic rats, single administration): 24 h; DN, effective dose (diabetic rats; po, 5 d loading): 5 to 10 mg; DN, effective dose (diabetic rats; po, acute single): 10 to 20 mg/kg; DN (effect on tactile allodynia in diabetic rats) (diabetic rats; po, acute single, 6 hours after administration): Effects of single administrations were observed and +ve; CFA (effect on tactile hyperalgesia) ([1]; po, 5 d loading): +ve; CFA, effective dose ([1]; po, 5 d loading): 5 to 10 mg; CFA (effect on tactile hyperalgesia) ([1]; po, acute single): efficacious and +ve; CFA, effective dose ([1]; po, acute single): 20 to 40 mg/kg; CFA, required dose range ([1]; po, daily dosing for 5 consecutive days): 5 to 10 mg/kg"
O=S(=O)([N-][Na+])c1nn2cc(-c3cc(C(F)(F)F)ccc3Cl)nc2s1 [Compound 160],–,–,–,10 mg/kg,Effects of single administrations were observed and +ve,can reverse neuropathic pain,–,–,–
CC(C)(C)c1ccc(-c2cn3nc(S(=O)(=O)[N-][Na+])sc3n2)cc1 [Compound 158],reversed an established neuropathic pain state,equivalent efficacy was observed and +ve,5 to 10 mg/kg,≤ 10 mg/kg,Effects of single administrations were observed and +ve,can reverse neuropathic pain,attenuated CFA-induced tactile hyperalgesia and +ve,active,"CFA, effective dose ([1]; sc, acute single): ≤ 10 mg/kg"
O=S(=O)([N-][Na+])c1nn2cc(-c3ccc4c(c3)OCCCO4)nc2s1 [Compound 155],–,–,–,≤ 10 mg/kg,Effects of single administrations were observed and +ve,can reverse neuropathic pain,attenuated CFA-induced tactile hyperalgesia and +ve,active,–
O=S(=O)([N-][Na+])c1nn2cc(-c3ccc(-c4cccc(C(F)(F)F)c4)cc3)nc2s1 [Compound 150],–,–,–,10 mg/kg,Effects of single administrations were observed and +ve,–,attenuated CFA-induced tactile hyperalgesia and +ve,active,"SNCV v vehicle treated diabetics at 2 months ([2]; 5 days/week): significantly better than vehicle treated diabetics; SNCV change from baseline to 2 months (within diabetic groups) ([2]; diabetic rats, 2 months of treatment): did not significantly change from baseline; SNCV, diabetics v normals after 2 months of treatment ([2]; dosed 2 days per week): did not confer similar protection; SNCV, diabetics v normals after 2 months of treatment ([2]; dosed 5 days per week): not significantly different from normals; SNCV v vehicle treated diabetics at 2 months ([2]; twice per week): did not afford similar protection; response to tactile stimulation with multiple dosing (diabetic rats; Study 1, diabetic rats, 10 mg/kg sc 5 days per week for two weeks): consistently responding within the normal range; tactile allodynia six hours after the initial treatment (diabetic rats; Study 1, diabetic rats, 10 mg/kg sc in 20% HPCD): tactile allodynia was reversed; MNCV v vehicle treated diabetics at 2 months ([3]; 2×/week): significantly better than vehicle treated diabetics; MNCV change from baseline to 2 months (within diabetic groups) ([3]; 2 days per week): identical effects as the drug given 5 days per week; MNCV, diabetics v normals ([3]; 2 days per week): did not restore MNCV to normal; MNCV change from baseline to 2 months (within diabetic groups) ([3]; 5 days per week): significant improvement in MNCV; MNCV v vehicle treated diabetics at 2 months ([3]; 5 days per week): significantly better than vehicle treated diabetics; MNCV, diabetics v normals ([3]; 5 days per week): did not restore MNCV to normal; mean area of all measured sural myelinated axons, diabetics given compound vs. vehicle [4]: rise in mean axonal area; mean axonal area of large (greater than 9 microns squared) myelinated axons, diabetics given compound vs. vehicle [4]: significant increase in mean axonal area"
O=S(=O)([N-][Na+])c1nn2cc(-c3ccc(Cl)c(Cl)c3Cl)nc2s1 [Compound 154],–,–,–,–,Effects of single administrations were observed and +ve,can reverse neuropathic pain,–,–,–
